# How the values were obtained:
# [1] = Caco2 assay (permeability, Papp A-B); assay type: in vitro ADME; details: human, Caco-2, absorptive direction (A-B), 50 μM test compound, 4% BSA in receiver
# In short: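 Absorptive (A-B) Papp: 50 μM test compound in HBSS added to apical side of 22-25-day Caco-2 monolayers (TEER 300 Ω·cm^2), receiver buffer containing 4% BSA. After 120 min at 37 °C, 5% CO2, both sides analysed by LCMS; Papp calculated from flux rate normalized to area and donor amount.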
# [2] = biological target: KRAS G12D (Homo sapiens, UniProt P01116, G12D); assay: GDP-GTP exchange assay (KRAS G12D); assay type: biochemical; details: bodipy-GDP/GppNHp exchange with SOS1; 4 h pre-incubation, 2 h reaction;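 also: one dagger IC50 up to 100 nM and two daggers above 100 nM up to 1 μM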
# Sequence of KRAS G12D (P01116 1-188 isoform P01116-2 G12D): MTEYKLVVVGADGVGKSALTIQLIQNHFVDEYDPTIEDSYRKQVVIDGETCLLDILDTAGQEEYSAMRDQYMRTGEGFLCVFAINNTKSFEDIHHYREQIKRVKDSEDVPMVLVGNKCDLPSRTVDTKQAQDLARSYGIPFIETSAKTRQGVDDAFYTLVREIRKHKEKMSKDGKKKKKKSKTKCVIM
# In short: (§1)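 IC50 came from a four-parameter fit of fluorescence loss (485/520 nm) as SOS1 (150 nM) swapped bodipy-GDP for GppNHp (500 μM) on 2.5 nM KRAS, final concentrations. Compounds were pre-incubated 4 h at r.t. (pH 7.5 Hepes, 10 mM MgCl2); exchange ran 2 h (G12D) or 3 h (G12V).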
# [3] = biological target: KRAS G12V (Homo sapiens, UniProt P01116, G12V); assay: GDP-GTP exchange assay (KRAS G12V); assay type: biochemical; details: bodipy-GDP/GppNHp exchange with SOS1; 3 h incubation after GppNHp-SOS1;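 also: one dagger IC50 up to 100 nM and two daggers above 100 nM up to 1 μM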
# Sequence of KRAS G12V (P01116 1-188 isoform P01116-2 G12V): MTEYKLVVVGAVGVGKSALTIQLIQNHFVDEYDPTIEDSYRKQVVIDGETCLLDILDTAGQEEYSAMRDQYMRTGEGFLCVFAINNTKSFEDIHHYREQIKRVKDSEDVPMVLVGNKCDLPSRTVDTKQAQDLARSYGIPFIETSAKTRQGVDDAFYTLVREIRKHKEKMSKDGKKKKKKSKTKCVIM
# In short: as §1
Structure (SMILES),"Papp A→B at 120 min, 50 μM [1] [×10⁻⁶ cm/s]",G12D_exchange (KRAS_G12D exchange assay IC50) [2],G12V_exchange (KRAS_G12V exchange assay IC50) [3]
"COc1ccnc(N2C[C@@H]3C[C@H](C2)N(C(=O)C2CC2)[C@H]3c2cc3c(C)nc4c(F)c(-c5cccc(Cl)c5Cl)c(CCC#N)cc4c3n2[C@H]2[C@H]3CN[C@@H]2C3)c1F (atropisomer, axis not shown; (Ra)) [Example 55, 3-((Ra)-1-((1R,4R,5S)-2-azabicyclo[2.1.1]hexan-5-yl)-2-((1S,5R,7R)-6-(cyclopropanecarbonyl)-3-(3-fluoro-4-methoxypyridin-2-yl)-3,6-diazabicyclo[3.2.1]octan-7-yl)-7-(2,3-dichlorophenyl)-6-fluoro-4-methyl-1H-pyrrolo[3,2-c]quinolin-8-yl)propanenitrile]",0.5 to 1,††,†
"Cc1ccc(F)c(N2C[C@@H]3C[C@H](C2)N(C(=O)C2CC2)[C@H]3c2cc3c(C)nc4c(F)c(-c5cccc(Cl)c5Cl)c(CCC#N)cc4c3n2[C@H]2[C@H]3CN[C@@H]2C3)n1 (atropisomer, axis not shown; (Ra)) [Example 52, 3-((Ra)-1-((1R,4R,5S)-2-azabicyclo[2.1.1]hexan-5-yl)-2-((1S,5R,7R)-6-(cyclopropanecarbonyl)-3-(3-fluoro-6-methylpyridin-2-yl)-3,6-diazabicyclo[3.2.1]octan-7-yl)-7-(2,3-dichlorophenyl)-6-fluoro-4-methyl-1H-pyrrolo[3,2-c]quinolin-8-yl)propanenitrile]",0.5 to 1,††,†
"CCOc1cc(N2C[C@@H]3C[C@H](C2)N(C(=O)C2CC2)[C@H]3c2cc3c(C)nc4c(F)c(-c5cccc(Cl)c5Cl)c(CCC#N)cc4c3n2[C@H]2[C@H]3CN[C@@H]2C3)ccn1 (atropisomer, axis not shown; (Ra)) [Example 81, 3-((Ra)-1-((1R,4R,5S)-2-azabicyclo[2.1.1]hexan-5-yl)-2-((1S,5R,7R)-6-(cyclopropanecarbonyl)-3-(2-ethoxypyridin-4-yl)-3,6-diazabicyclo[3.2.1]octan-7-yl)-7-(2,3-dichlorophenyl)-6-fluoro-4-methyl-1H-pyrrolo[3,2-c]quinolin-8-yl)propanenitrile]",≤ 0.5,†,†
"Cc1nc2c(F)c(-c3cccc(Cl)c3Cl)c(CCC#N)cc2c2c1cc([C@H]1[C@@H]3COC(=O)[C@@H](C3)N1C(=O)C1CC1)n2[C@H]1[C@H]2CN[C@@H]1C2 (atropisomer, axis not shown; (Ra)) [Example 116, 3-((Ra)-1-((1R,4R,5S)-2-Azabicyclo[2.1.1]hexan-5-yl)-2-((1R,5R,7R)-6-(cyclopropanecarbonyl)-4-oxo-3-oxa-6-azabicyclo[3.2.1]octan-7-yl)-7-(2,3-dichlorophenyl)-6-fluoro-4-methyl-1H-pyrrolo[3,2-c]quinolin-8-yl)propanenitrile]",≤ 0.5,†,†
"Cc1nc2c(F)c(-c3cccc(Cl)c3Cl)c(CCC#N)cc2c2c1cc([C@H]1[C@H]3C[C@H](CN(c4ccc(C(F)(F)F)nc4)C3)N1C(=O)C1CC1)n2[C@H]1[C@H]2CN[C@@H]1C2 (atropisomer, axis not shown; (Ra)) [Example 5, 3-((Ra)-1-((1R,4R,5S)-2-azabicyclo[2.1.1]hexan-5-yl)-2-((1S,5R,7R)-6-(cyclopropanecarbonyl)-3-(6-(trifluoromethyl)pyridin-3-yl)-3,6-diazabicyclo[3.2.1]octan-7-yl)-7-(2,3-dichlorophenyl)-6-fluoro-4-methyl-1H-pyrrolo[3,2-c]quinolin-8-yl)propanenitrile]",≤ 0.5,†,†
"CCn1ccc(N2C[C@@H]3C[C@H](C2)N(C(=O)C2CC2)[C@H]3c2cc3c(C)nc4c(F)c(-c5cccc(Cl)c5Cl)c(CCC#N)cc4c3n2[C@H]2[C@H]3CN[C@@H]2C3)cc1=O (atropisomer, axis not shown; (Ra)) [Example 67, 3-((Ra)-1-((1R,4R,5S)-2-azabicyclo[2.1.1]hexan-5-yl)-2-((1S,5R,7R)-6-(cyclopropanecarbonyl)-3-(1-ethyl-2-oxo-1,2-dihydropyridin-4-yl)-3,6-diazabicyclo[3.2.1]octan-7-yl)-7-(2,3-dichlorophenyl)-6-fluoro-4-methyl-1H-pyrrolo[3,2-c]quinolin-8-yl)propanenitrile]",≤ 0.5,†,†
"Cc1nc2c(F)c(-c3cccc(Cl)c3Cl)c(CCC#N)cc2c2c1cc([C@H]1[C@H]3C[C@H](CN(c4ccc(OC(F)(F)F)cc4F)C3)N1C(=O)C1CC1)n2[C@H]1[C@H]2CN[C@@H]1C2 (atropisomer, axis not shown; (Ra)) [Example 28, 3-((Ra)-1-((1R,4R,5S)-2-azabicyclo[2.1.1]hexan-5-yl)-2-((1S,5R,7R)-6-(cyclopropanecarbonyl)-3-(2-fluoro-4-(trifluoromethoxy)phenyl)-3,6-diazabicyclo[3.2.1]octan-7-yl)-7-(2,3-dichlorophenyl)-6-fluoro-4-methyl-1H-pyrrolo[3,2-c]quinolin-8-yl)propanenitrile]",≤ 0.5,††,†
"Cc1nc2c(F)c(-c3cccc(Cl)c3Cl)c(CCC#N)cc2c2c1cc([C@H]1[C@H]3C[C@H](CN(c4ccccc4F)C3)N1C(=O)C1CC1)n2[C@H]1[C@H]2CN[C@@H]1C2 (atropisomer, axis not shown; (Ra)) [Example 2, 3-((Ra)-1-((1R,4R,5S)-2-Azabicyclo[2.1.1]hexan-5-yl)-2-((1 S,5R,7R)-6-(cyclopropanecarbonyl)-3-(2-fluorophenyl)-3,6-diazabicyclo[3.2.1]octan-7-yl)-7-(2,3-dichlorophenyl)-6-fluoro-4-methyl-1H-pyrrolo[3,2-c]quinolin-8-yl)propanenitrile]",≤ 0.5,†,†
"Cc1cnc(N2C[C@@H]3C[C@H](C2)N(C(=O)C2CC2)[C@H]3c2cc3c(C)nc4c(F)c(-c5cccc(Cl)c5Cl)c(CCC#N)cc4c3n2[C@H]2[C@H]3CN[C@@H]2C3)s1 (atropisomer, axis not shown; (Ra)) [Example 91, 3-((Ra)-1-((1R,4R,5S)-2-azabicyclo[2.1.1]hexan-5-yl)-2-((1S,5R,7R)-6-(cyclopropanecarbonyl)-3-(5-methylthiazol-2-yl)-3,6-diazabicyclo[3.2.1]octan-7-yl)-7-(2,3-dichlorophenyl)-6-fluoro-4-methyl-1H-pyrrolo[3,2-c]quinolin-8-yl)propanenitrile]",≤ 0.5,†,†
"Cc1nc2c(F)c(-c3cccc(Cl)c3Cl)c(CCC#N)cc2c2c1cc([C@H]1[C@H]3C[C@H](CN(S(=O)(=O)N4CCOCC4)C3)N1C(=O)C1CC1)n2[C@H]1[C@H]2CN[C@@H]1C2 (atropisomer, axis not shown; (Ra)) [Example 111, 3-((Ra)-1-((1R,4R,5S)-2-Azabicyclo[2.1.1]hexan-5-yl)-2-((1 S,5R,7R)-6-(cyclopropanecarbonyl)-3-(morpholinosulfonyl)-3,6-diazabicyclo[3.2.1]octan-7-yl)-7-(2,3-dichlorophenyl)-6-fluoro-4-methyl-1H-pyrrolo[3,2-c]quinolin-8-yl)propanenitrile]",≤ 0.5,††,†
"Cc1cc(N2C[C@@H]3C[C@H](C2)N(C(=O)C2CC2)[C@H]3c2cc3c(C)nc4c(F)c(-c5cccc(Cl)c5Cl)c(CCC#N)cc4c3n2[C@H]2[C@H]3CN[C@@H]2C3)cc(C(F)F)n1 (atropisomer, axis not shown; (Ra)) [Example 84, 3-((Ra)-1-((1R,4R,5S)-2-azabicyclo[2.1.1]hexan-5-yl)-2-((1S,5R,7R)-6-(cyclopropanecarbonyl)-3-(2-(difluoromethyl)-6-methylpyridin-4-yl)-3,6-diazabicyclo[3.2.1]octan-7-yl)-7-(2,3-dichlorophenyl)-6-fluoro-4-methyl-1H-pyrrolo[3,2-c]quinolin-8-yl)propanenitrile]",≤ 0.5,†,†
"Cc1nc2c(F)c(-c3cccc(Cl)c3Cl)c(CCC#N)cc2c2c1cc([C@H]1[C@H]3C[C@H](CN(c4ncccn4)C3)N1C(=O)C1CC1)n2[C@H]1[C@H]2CN[C@@H]1C2 (atropisomer, axis not shown; (Ra)) [Example 33, 3-((Ra)-1-((1R,4R,5S)-2-azabicyclo[2.1.1]hexan-5-yl)-2-((1S,5R,7R)-6-(cyclopropanecarbonyl)-3-(pyrimidin-2-yl)-3,6-diazabicyclo[3.2.1]octan-7-yl)-7-(2,3-dichlorophenyl)-6-fluoro-4-methyl-1H-pyrrolo[3,2-c]quinolin-8-yl)propanenitrile]",≤ 0.5,†,†

# From patent publication US20250195536A1, “BICYCLOOCTANE KRAS INHIBITORS” (Incyte Corporation, priority 2023, published 2025)
